Patent US6743796B2, “Piperazinyl-isatins” (Wyeth, priority 2001, dated 2004)
Where a name gives a salt, the structure may show the parent alone.

Legend:
[1] = target: T1, dopamine autoreceptor (D2 Quin.) (Rattus norvegicus, UniProt P61169); experiment: Affinity for the dopamine autoreceptor: [3H]-quinpirole binding in homogenized rat striatal brain tissue; settings: rat striatal brain tissue (high-affinity agonist state)
T1 construct: from tissue; host or cells: rat striatal brain tissue homogenate
T1 sequence (P61169 whole entry): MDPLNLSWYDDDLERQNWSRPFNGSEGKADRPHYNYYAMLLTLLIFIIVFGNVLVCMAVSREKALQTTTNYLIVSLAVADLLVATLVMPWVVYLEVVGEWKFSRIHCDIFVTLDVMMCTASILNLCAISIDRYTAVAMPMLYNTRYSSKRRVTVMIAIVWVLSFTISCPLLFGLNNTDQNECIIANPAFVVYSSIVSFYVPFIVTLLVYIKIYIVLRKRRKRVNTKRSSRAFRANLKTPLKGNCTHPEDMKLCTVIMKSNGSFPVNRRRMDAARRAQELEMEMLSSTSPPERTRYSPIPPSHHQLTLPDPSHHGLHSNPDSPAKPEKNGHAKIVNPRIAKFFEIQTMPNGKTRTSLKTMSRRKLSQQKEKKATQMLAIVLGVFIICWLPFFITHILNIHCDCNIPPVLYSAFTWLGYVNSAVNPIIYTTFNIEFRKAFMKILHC
Protocol: Affinity for the dopamine autoreceptor was established by a modification of the standard pharmacological test procedure of Seemen and Schaus, European Journal of Pharmacology 203: 105-109, 1991, wherein homogenized rat striatal brain tissue is incubated with [^3H]-quinpirole (Quin.) at various concentrations of test compound, filtered, washed and counted in a Betaplate scintillation counter.

dopamine D2 receptor = experiment: Affinity for the dopamine D2 receptor: [3H]-spiperidone binding in homogenized limbic brain tissue; settings: ratio of IC50 D2 Spiper to IC50 D2 Quin. (LowAg/HighAg)
Protocol: High affinity for the dopamine D2 receptor was established by the standard pharmacological test procedure of Fields, et al., Brain Res., 136, […] (1977) and Yamamura et al., ed., Neurotransmitter Receptor Binding, Raven Press, N.Y. (1978) wherein homogenized limbic brain tissue is incubated with [^3H]-spiperidone at various concentrations of test compound, filtered washed, and shaken with Hydrofluor scintillation cocktail (National Diagnostics) and counted in a Packard 460 CD scintillation counter.

Compound	melting point [°C]	IC50 [1] [nM]	Ratio antagonist (dopamine D2 receptor)
O=C1Nc2cccc(N3CCN(Cc4ccccc4)CC3)c2C1=O (as salt: fumarate) (hydrate or solvate) [Example V, 4-(4-Benzyl-piperazin-1-yl)-1H-indole-2,3-dione]	118 to 120		
O=C1Nc2cccc(N3CCN(Cc4ccccc4)CC3)c2C1=O [Example V, 4-(4-Benzyl-piperazin-1-yl)-1H-indole-2,3-dione]		0.57 ± 0.2	149
